Data taken from US10702512B2, “Treatment of debilitating fatigue” (A. CARLSSON RESEARCH AB, priority 2015, dated 2020).

What was measured:
water solubility = assay type: physicochemical; conditions: hydrochloride, white powder
Experimental: The investigated substance is the S enantiomer with the chemical name (S)-3-[3-(methylsulfonyl) phenyl]-1-propylpiperidine hydrochloride, referred herein to as OSU6162. The substance is a white powder with a melting point of 177-182° C. and water solubility of >2000 mg/ml.

ME/CFS patients [1] = assay: Clinical Global Impression of Change (CGI-C), phase II clinical study; assay type: in vivo, human; conditions: for patients exhibiting improved CGI-C values: entire population
Experimental: As used herein “Clinical Global Impression of Change” (CGI-C) (also known as Clinical Global Impression—Improvement (CGI-I)) scale is a 7 point scale that requires the clinician to assess how much the patient's illness has improved or worsened relative to a baseline state at the beginning of the intervention. […] Circular coated tablets for oral use of 15 mg and matching placebos was used. The tablets were administered by research nurses at the study site. The tablets were circular coated tablets for oral use containing 15 mg OSU6162. Matching placebos were used. The start dose was 15 mg OSU6162 twice daily (before breakfast and lunch) during 1 week with dose increase up to 30 mg twice daily during the following week. Efficacy was measured according to ratings using the self-assessment questionnaire for mental fatigue and related symptoms (MFS) after neurological disorders and injuries (Johansson et al, supra). Another primary endpoint was the result of the rating by the Clinical Global Impression of Change (Guy, supra), which rating was made by the doctor in charge of the patient. CGI-C scores range from 1 (very much improved) through to 7 (very much worse). Clinical Global Impression of Change (CGI-C) was evaluated by the clinician for each patient.

ME/CFS patients [2] = assay: FibroFatigue scale (FF) total score, phase II clinical study; assay type: in vivo, human
Text: As used herein, the term “FF-scale” or “FF” refers to the FibroFatigue scale also known as the fibromyalgia and chronic fatigue syndrome rating scale described in by Zachrisson and coworkers (Zachrisson O, et al, (2002) J Psychosom Res Jun; 52(6):501-9). The FibroFatigue scale is an observer's rating scale with 12 items measuring pain, muscular tension, fatigue, concentration difficulties, failing memory, irritability, sadness, sleep disturbances, and autonomic disturbances and irritable bowel, headache and subjective experience of infection. […] Circular coated tablets for oral use of 15 mg and matching placebos was used. The tablets were administered by research nurses at the study site. The tablets were circular coated tablets for oral use containing 15 mg OSU6162. Matching placebos were used. The start dose was 15 mg OSU6162 twice daily (before breakfast and lunch) during 1 week with dose increase up to 30 mg twice daily during the following week. Additionally, the clinical effect was evaluated using the FF-scale, The Beck/BDI scale, VAS pain scale and with neuropsychological tests. To examine the effect of treatment and concomitant use of an antidepressant, antidepressant was included as a fixed factor in the analyses. […] Outcome targets FF, MFS and BDI were measured.

ME/CFS patients [3] = assay: mental fatigue self-assessment questionnaire (MFS) total score, phase II clinical study; assay type: in vivo, human
Experimental: As used herein, the term “MFS” refers to a the mental fatigue self-assessment questionnaire (Johansson B et al (2010) Brain Injury 2010; 24:2-12). […] Circular coated tablets for oral use of 15 mg and matching placebos was used. The tablets were administered by research nurses at the study site. The tablets were circular coated tablets for oral use containing 15 mg OSU6162. Matching placebos were used. The start dose was 15 mg OSU6162 twice daily (before breakfast and lunch) during 1 week with dose increase up to 30 mg twice daily during the following week. Efficacy was measured according to ratings using the self-assessment questionnaire for mental fatigue and related symptoms (MFS) after neurological disorders and injuries (Johansson et al, supra). Another primary endpoint was the result of the rating by the Clinical Global Impression of Change (Guy, supra), which rating was made by the doctor in charge of the patient. CGI-C scores range from 1 (very much improved) through to 7 (very much worse). To examine the effect of treatment and concomitant use of an antidepressant, antidepressant was included as a fixed factor in the analyses. […] Outcome targets FF, MFS and BDI were measured.

ME/CFS patients [4] = assay: Beck Depression Inventory (BDI) total score, phase II clinical study; assay type: in vivo, human; conditions: 2-way ANOVA, OSU6162 vs placebo
Experimental: Circular coated tablets for oral use of 15 mg and matching placebos was used. The tablets were administered by research nurses at the study site. The tablets were circular coated tablets for oral use containing 15 mg OSU6162. Matching placebos were used. The start dose was 15 mg OSU6162 twice daily (before breakfast and lunch) during 1 week with dose increase up to 30 mg twice daily during the following week. Additionally, the clinical effect was evaluated using the FF-scale, The Beck/BDI scale, VAS pain scale and with neuropsychological tests. To examine the effect of treatment and concomitant use of an antidepressant, antidepressant was included as a fixed factor in the analyses. […] Outcome targets FF, MFS and BDI were measured.

ME/CFS patients [5] = assay: Trail making test A (TMT A); assay type: in vivo, human
Experimental: Next, patients were evaluated using a neuropsychological test. 61 patients were included in a neuropsychological examination. All subjects were tested once in connection with the randomization with the BNIS neuropsychological screening test. 20-30 minutes was required for this test. With the purpose of measuring the cognitive effects of the OSU6162 treatment six more tests were distributed at a first occasion before the initiation of treatment and at a second occasion after the treatment was completed. These tests required 20 minutes each. All tests were performed by a neuropsychologist. Trail making test A (TMT A) requires the subject to draw a line as quickly as possible connecting a series of numbers. It is a time-based measure of attention, where time and quality are noted and requires motor effectiveness, visual scanning, speed and flexibility. The test has a high sensitivity for brain dysfunction.

ME/CFS patients [6] = assay: neuropsychological tests of cognitive functioning, overall; assay type: in vivo, human; conditions: all neuropsychological tests employed; no significant difference vs placebo
[7] = patients not on antidepressant therapy, post hoc comparison

CCCN1CCC[C@@H](c2cccc(S(C)(=O)=O)c2)C1.Cl [OSU6162, (3S)-3-[3-(methylsulfonyl)-phenyl]-1-propylpiperidine hydrochloride]
solubility (water solubility): > 2000 mg/mL | patients exhibiting improved CGI-C values (ME/CFS patients [1]; after one week of treatment (15 mg twice daily, oral), 13 of 30): 43% | patients exhibiting improved CGI-C values (ME/CFS patients [1]; after two weeks of treatment (30 mg twice daily in week 2, oral), 17 of 30): 57% | difference in CGI-C between treatment groups (OSU6162 vs placebo) (ME/CFS patients [1]; entire patient population): no significant difference | CGI-C improvement vs placebo (ME/CFS patients [1]; subgroup receiving concomitant antidepressant treatment, after one week, Mann-Whitney U-test p=0.0524): clear tendency after one week for a greater improvement | FF main effect of treatment (ME/CFS patients [2]; 2-way ANOVA, OSU6162 vs placebo): None | FF interaction between treatment with OSU6162 and antidepressant over time (ME/CFS patients [2]; 3-way ANOVA week*treatm*antidepr, F3,180=6.785, p=0.0002): statistically significant 3-way interactions | FF difference between OSU6162 treated and placebo treated patients (ME/CFS patients [2]; [7]): No difference | FF change from week 0, difference OSU6162 vs placebo (95% confidence interval) (ME/CFS patients [2]; patients on stable antidepressant therapy, after one week of treatment, F1,56=6.320, p=0.015, Bonferroni): −7.23 (−13.1 to −1.48) | MFS overall group difference between OSU6162 and placebo (ME/CFS patients [3]; 2-way ANOVA, F1,60=3.997, p=0.050): borderline significant trend | MFS interaction between treatment with OSU6162 and antidepressant over time (ME/CFS patients [3]; 3-way ANOVA week*treatm*antidepr, F3,180=2.755, p=0.044): statistically significant 3-way interactions | MFS overall difference between OSU6162 and placebo (ME/CFS patients [3]; 3-way analysis with antidepressant as fixed factor, F1,60=3.578, p=0.063): tendency to an overall difference | MFS difference between OSU6162 treated and placebo treated patients (ME/CFS patients [3]; [7]): No difference | MFS change from week 0, difference OSU6162 vs placebo (95% CI) (ME/CFS patients [3]; patients on stable antidepressant therapy, after one week of treatment, F1,56=5.915, p=0.018, Bonferroni): −4.82 (−8.79 to −0.85) | BDI main effect of treatment (ME/CFS patients [4]): None | TMT A, max (ME/CFS patients [5]; after treatment): 48 s | TMT A, mean (ME/CFS patients [5]; after treatment): 28.5 | TMT A, median (ME/CFS patients [5]; after treatment): 29 | TMT A, min (ME/CFS patients [5]; after treatment): 15 | TMT A difference between OSU6162 and placebo groups (ME/CFS patients [5]; before and after treatment): No significant differences | TMT A, max (ME/CFS patients [5]; before treatment): 57 s | TMT A, mean (ME/CFS patients [5]; before treatment): 33.4 | TMT A, median (ME/CFS patients [5]; before treatment): 32 | TMT A, min (ME/CFS patients [5]; before treatment): 16 | TMT A, Difference (ME/CFS patients [5]; before vs after treatment): 10 | effect of treatment on cognitive abilities (ME/CFS patients [6]): does not affect the cognitive abilities
